Laboratory results published in US20200056174A1, “COMPOSITIONS AND METHODS OF TREATING CANCER” (DANA-FARBER CANCER INSTITUTE, INC., priority 2016, published 2020).

Assays:
BT-20/MUC1-C cells = experiment: Expression (qRT-PCR, immunoblot) in treated BT-20/MUC1-C cells; type: cell-based, human; settings: vs vehicle
Protocol: (§1) Cell culture. Human BT-549, SUM-159 and mouse Eo771 TNBC cells were propagated in RPMI1640 medium (ATCC, Manassas, Va., USA). Human MDA-MB-468 and MDA-MB-231 TNBC cells were cultured in Dulbecco's modified Eagle's medium (DMEM) (Corning, Manassas, Va., USA). Human BT-20 TNBC cells were cultured in Eagle's Minimum Essential Medium (EMEM) (ATCC). Media were supplemented with 10% heat-inactivated fetal bovine serum, 100 units/ml penicillin, and 100 μg/ml streptomycin. Authentication of the cells was performed by short tandem repeat (STR) analysis. Cells were monitored for Mycoplasma contamination by MycoAlert® Mycoplasma Detection Kit (Lonza, Rockland, Mass., USA). BT-549 and MDA-MB-231 cells were transfected with lentiviral vectors to stably express a scrambled control shRNA (CshRNA; Sigma, St. Louis, Mo., USA) and a NF-κB p65 shRNA (Sigma). Human BT-20 and mouse Eo771 cells were stably transfected to express an empty vector or one encoding MUC1-C. […]
(§2) Quantitative real-time, reverse transcriptase PCR (qRT-PCR). […]
(§3) Immunoblot analysis. […] Immunoreactive complexes were detected using horseradish peroxidase-conjugated secondary antibodies (GE Healthcare Life Sciences, Marlborough, Mass., USA) and an enhanced chemiluminescence (ECL) detection reagents (Perkin Elmer Health Sciences, Waltham, Mass., USA). […] Lysates were analyzed using the Lightswitch Luciferase Assay Kit (Active Motif).

Eo771/MUC1-C cells = experiment: Expression (qRT-PCR, immunoblot) in treated Eo771/MUC1-C cells; type: cell-based, mouse; settings: vs vehicle
Protocol: as §1, §2, §3

H460 cells = experiment: Gene expression (qRT-PCR) in treated H460 NSCLC cells; type: cell-based, human; settings: 5 μM BAY-11-7085, 18 h, vs DMSO
Protocol: (§4) Cell culture. Human A549/KRAS(G12S), H460/KRAS(Q61H) and H1975/EGFR(L858R/T790M) NSCLC cells (ATCC) were grown in RPMI1640 medium supplemented with 10% heat-inactivated fetal bovine serum (HI-FBS), 100 μg/ml streptomycin, 100 units/ml penicillin and 2 mM L-glutamine. Authentication of the cells was performed by short tandem repeat (STR) analysis. Cells were transfected with lentiviral vectors to stably express a scrambled control shRNA (CshRNA; Sigma), a MUC1 shRNA (MUC1shRNA; Sigma), a NF-κB p65 shRNA (Sigma), MUC1-C or MUC1-C (AQA) (27, 8, 49). Cells were treated with the IκB inhibitor BAY-11-7085 (Sigma) or DMSO as the vehicle control. Cells were also treated with empty nanoparticles (NPs) or GO-203/NPs (39).
(§5) Quantitative real-time, reverse transcriptase PCR (qRT-PCR). Whole cell RNA was isolated using the RNeasy mini kit (Qiagen). The High Capacity cDNA Reverse Transcription kit (Life Technologies) was used to synthesize cDNAs from 2 μg RNA. The SYBR green qPCR assay kit and the ABI Prism Sequence Detector (Applied Biosystems) were used to amplify the cDNAs.
(§6) Immunoblot analysis. Whole cell lysates were prepared in NP-40 lysis buffer and immunoblotted with antibodies against MUC1-C (LabVision), PD-L1 (Cell Signaling Technology) and β-actin (Sigma). Horseradish peroxidase secondary antibodies and enhanced chemiluminescence (GE Healthcare) were used for the detection of immune complexes.

H1975 cells = experiment: Gene expression (qRT-PCR) in treated H1975 NSCLC cells; type: cell-based, human; settings: 5 μM BAY-11-7085, 18 h, vs DMSO
Protocol: as §4, §5, §6

BT-549 cells = experiment: Expression (qRT-PCR, immunoblot) in treated BT-549 TNBC cells; type: cell-based, human; settings: vs vehicle
Protocol: as §1, §2, §3

Row | Compound | PD-L1 expression (BT-20/MUC1-C cells; 5 μM BAY-11-7085, 24 h) | MUC1-C→PD-L1 response (PD-L1 mRNA and protein) (Eo771/MUC1-C cells; 5 μM BAY-11-7085, 24 h) | PD-L1 expression (mRNA, qRT-PCR) (H460 cells) | TLR7 mRNA levels (H460 cells) | PD-L1 expression (mRNA, qRT-PCR) (H1975 cells) | TLR7 mRNA levels (H1975 cells) | PD-L1 expression (BT-549 cells; 5 μM BAY-11-7085, 24 h) | PD-L1 expression (BT-20/MUC1-C cells; 5 μM JQ1, 48 h) | MUC1-C→PD-L1 response (PD-L1 mRNA and protein) (Eo771/MUC1-C cells; 5 μM JQ1, 48 h) | PD-L1 expression (BT-549 cells; 5 μM JQ1, 48 h)
1 | CC(C)(C)c1ccc(S(=O)(=O)/C=C/C#N)cc1 [BAY-11-7085] | suppression of PD-L1 expression | inhibited | suppresses PD-L1 expression | decreases in TLR7 mRNA levels | suppresses PD-L1 expression | decreases in TLR7 mRNA levels | suppression of PD-L1 expression | – | – | –
2 | Cc1sc2c(c1C)C(c1ccc(Cl)cc1)=N[C@@H](CC(=O)OC(C)(C)C)c1nnc(C)n1-2 [JQ1] | – | – | – | – | – | – | – | downregulation of PD-L1 expression | inhibited | downregulation of PD-L1 expression
